pIC50: −log10 of the molar value.
What was measured:
Plasma = assay: Anti-platelet aggregation in platelet-rich plasma of male human assessed as inhibition of ADP-induced platelet aggregation preincubated for 15 mins followed by ADP addition measured up to 10 mins by Born's turbidometric method; format: functional, cell-free
CYP2A6 = target: T1, CYP2A6 (Homo sapiens, UniProt P11509); assay: Inhibition of CYP2A6 in human liver microsomes using coumarin as substrate at 10 uM preincubated for 5 min followed by NADPH addition measured after 120 mins by LC-MS/MS analysis relative to control; format: ADME, Microsome; settings: probe coumarin, time 125 min
T1 sequence (P11509 whole entry): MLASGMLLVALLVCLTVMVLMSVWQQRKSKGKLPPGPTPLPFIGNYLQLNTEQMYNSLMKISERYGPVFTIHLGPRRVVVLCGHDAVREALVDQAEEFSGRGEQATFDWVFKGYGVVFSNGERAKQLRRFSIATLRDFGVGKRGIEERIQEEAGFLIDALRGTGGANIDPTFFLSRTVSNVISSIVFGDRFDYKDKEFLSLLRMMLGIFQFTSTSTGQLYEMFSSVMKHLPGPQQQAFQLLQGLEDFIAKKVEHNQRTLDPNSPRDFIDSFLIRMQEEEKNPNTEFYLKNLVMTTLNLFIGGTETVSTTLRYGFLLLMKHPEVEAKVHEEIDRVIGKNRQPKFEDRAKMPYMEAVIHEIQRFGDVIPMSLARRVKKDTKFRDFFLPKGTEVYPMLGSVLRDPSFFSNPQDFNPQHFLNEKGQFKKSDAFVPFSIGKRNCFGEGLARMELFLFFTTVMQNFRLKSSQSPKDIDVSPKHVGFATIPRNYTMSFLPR

[1] = Metabolic stability in human liver microsomes assessed as parent compound remaining at 1 uM measured after 3 hrs in presence of NADPH by LC-MS/MS analysis; format: ADME, Microsome; settings: read-out: Stability
CYP2E1 = CYP2E1 (Homo sapiens, UniProt P05181); assay: Inhibition of CYP2E1 in human liver microsomes using chlorzoxazone as substrate at 10 uM preincubated for 5 min followed by NADPH addition measured after 120 mins by LC-MS/MS analysis relative to control; format: ADME, Microsome; settings: probe chlorzoxazone, time 125 min
CYP2E1, sequence (P05181 whole entry): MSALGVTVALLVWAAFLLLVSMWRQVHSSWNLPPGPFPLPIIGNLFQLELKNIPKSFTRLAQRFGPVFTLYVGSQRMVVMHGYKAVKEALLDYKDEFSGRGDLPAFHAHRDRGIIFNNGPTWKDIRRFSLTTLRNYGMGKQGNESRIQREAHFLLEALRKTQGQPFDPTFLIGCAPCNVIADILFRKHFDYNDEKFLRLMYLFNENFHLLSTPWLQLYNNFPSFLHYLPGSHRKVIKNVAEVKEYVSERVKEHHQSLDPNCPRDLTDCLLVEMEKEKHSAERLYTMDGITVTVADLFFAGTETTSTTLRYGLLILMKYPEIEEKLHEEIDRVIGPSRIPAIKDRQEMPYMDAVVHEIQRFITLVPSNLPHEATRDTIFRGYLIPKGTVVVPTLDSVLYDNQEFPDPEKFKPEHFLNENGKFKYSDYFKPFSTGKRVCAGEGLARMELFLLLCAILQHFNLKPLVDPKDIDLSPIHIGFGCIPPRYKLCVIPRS

HT-22 = assay: Neuroprotective activity against H2O2-induced oxidative stress in mouse HT-22 cells assessed as cell viability at 10 uM preincubated for 2 hrs followed by H2O2 addition measured after 24 hrs by MTT assay (reference value: 55 +/- 4.6 %); format: functional; settings: time 26 hrs, read-out: Activity
[2] = Tmax male Sprague-Dawley rat at 10 mg/kg, po measured up to 24 hrs by LC-MS/MS analysis; format: ADME, organism-based; settings: in vivo
Rattus norvegicus [3] = assay: Neuroprotective activity in MCAO-induced brain damage Sprague-Dawley rat model assessed as reduction in neurological damage administered intravenously immediately after arterial occlusion measured after 24 hrs by Longa's method; format: functional, organism-based; settings: dose 2.5-10 mg/kg, route iv
[4] = AUC (0 to infinity) male Sprague-Dawley rat at 10 mg/kg, po measured up to 24 hrs by LC-MS/MS analysis; format: ADME, organism-based; settings: in vivo
Rattus norvegicus [5] = assay: Neuroprotective activity in MCAO-induced brain damage Sprague-Dawley rat model assessed as brain infarction size at 10 mg/kg, iv administered immediately after arterial occlusion measured after 24 hrs by TTC staining based analysis (reference value: 43.1 %); format: functional
[6] = MRT (0 to infinity) male Sprague-Dawley rat at 10 mg/kg, po measured up to 24 hrs by LC-MS/MS analysis; format: ADME, organism-based; settings: in vivo
[7] = Apparent volume of distribution male Sprague-Dawley rat at 10 mg/kg, po measured up to 24 hrs by LC-MS/MS analysis; format: ADME, organism-based; settings: in vivo
[8] = Half life male Sprague-Dawley rat at 10 mg/kg, po measured up to 24 hrs by LC-MS/MS analysis; format: ADME, organism-based; settings: in vivo

| SMILES | pIC50 (Plasma) | inhibition at 2 h, 10 µM (CYP2A6) | remaining at 3 h, 1 µM [1] | inhibition at 2 h, 10 µM (CYP2E1) | viability at 10 µM (HT-22) | Tmax ([2]; male, Sprague-Dawley, read-out: Tmax) | Activity (Rattus norvegicus [3]) | AUC(0-inf) ([4]; male, Sprague-Dawley) | Activity (Rattus norvegicus [5]) | MRT inf [6] | Vz [7] | t1/2 [8] | Tmax ([2]; po, 10 mg/kg, 24 h) | AUC ([4]; po, 10 mg/kg, 24 h) |
| --- | --- | --- | --- | --- | --- | --- | --- | --- | --- | --- | --- | --- | --- | --- |
| N#Cc1cccc(-c2nc(C(F)F)c(C(=O)O)n2OCc2csc(N)n2)c1 | 5.47 | -13.5% | 92.5% | 50.2% | 90.7% | 10 min | Dose-dependent-effect; Outperformed Edaravone And Hnw001 At 10 Mg/Kg | 36 ng·h/mL | 20.9% |  |  |  |  |  |
| N#Cc1cccc(Oc2nc(-c3cccc(C#N)c3)ncc2C(=O)O)c1 | 5.44 | -17.7% | 76.9% | 36.4% | 94.7% |  | Dose-dependent-effect; Outperformed Edaravone And Hnw001 At 10 Mg/Kg |  | 11.1% | 18.4 min | 7.668 L/kg | 15.7 min | 6.12 min | 986 ng·h/mL |

— ChEMBL document CHEMBL6182910, “Design, Synthesis, and Biological Evaluation of 4-(Difluoromethyl)-1H-imidazole-5-carboxylic Acids/4-(3-Cyanophenoxy)pyrimidine-5-carboxylic Acids as P2Y1 Receptor Antagonists for Ischemic Stroke Treatment” (J Med Chem, 2025)
